This note sets out measurements from PubChem BioAssay (NCI).

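In this assay, cells in 96-well plates receive the compound at five concentrations for 48 hours. Endpoints are linearly interpolated between the surrounding concentrations. The concentration for full growth arrest is given as TGI.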

Some test systems named below: A549 NSCLC; HL-60(TB) leukemia; HOP-62 NSCLC; MOLT-4 leukemia; NCI-H23 lung; NCI-H460 lung; OVCAR-4 ovarian; PC-3 prostate; RXF 393 renal; SK-MEL-28 melanoma; SW-620 colon; UACC-62 melanoma.
What all share (assay): inhibition of tumour cell growth, NCI panel, 48 h

Consider `Cc1cc(NS(=O)(=O)c2ccc(Nc3c4ccccc4nc4ccc(C(=O)Nc5ccc(S(N)(=O)=O)cc5)cc34)cc2)no1`, for which the TGI in the assay on A549 NSCLC, in the assay with HL-60(TB) leukemia, in the assay with HOP-62 NSCLC, in the assay with MOLT-4 leukemia, in the assay with NCI-H23 lung and in the assay with NCI-H460 lung was > 100 µM throughout. Further, the TGI with OVCAR-4 ovarian, with PC-3 prostate, with RXF 393 renal, in the assay with SK-MEL-28 melanoma, in the assay with SW-620 colon and in the assay with UACC-62 melanoma was > 100 µM throughout.
With `CN(CCCNC(=O)c1nn(-c2ccc(Cl)cc2Cl)c2c1ccc1ccccc12)CCCNC(=O)c1nn(-c2ccc(Cl)cc2Cl)c2c1ccc1ccccc12`, the TGI is 3.11 µM in the assay on A549 NSCLC; 2.1 µM in the assay on HL-60(TB) leukemia; 3.31 µM in the assay with HOP-62 NSCLC; 3.63 µM in the assay on MOLT-4 leukemia; 3.26 µM in the assay on NCI-H23 lung; 3.51 µM with NCI-H460 lung. Further, the TGI was determined as 3.21 µM in the assay with OVCAR-4 ovarian, 3.08 µM with PC-3 prostate, 3.12 µM with RXF 393 renal and 3.03 µM with UACC-62 melanoma.
With `COc1cc2cc(C(=O)N3CC(CCl)c4ccccc43)[nH]c2c(OC)c1OC` (configuration not stated), the TGI is > 100 µM in the assay with A549 NSCLC; > 100 µM in the assay with HL-60(TB) leukemia; > 92.1 µM in the assay with HOP-62 NSCLC; > 100 µM in the assay on MOLT-4 leukemia; > 100 µM in the assay with NCI-H23 lung; > 57.4 µM with NCI-H460 lung. Moreover, the TGI in the assay on OVCAR-4 ovarian, in the assay on PC-3 prostate, with RXF 393 renal, in the assay with SK-MEL-28 melanoma, in the assay on SW-620 colon and with UACC-62 melanoma was > 100 µM throughout.
On to `COc1ccc([C@@]23OC[C@@H]4[C@@H](OC[C@@H]42)c2cc(OC)c(OC)cc23)cc1OC`, for which the TGI in the assay with A549 NSCLC, with HL-60(TB) leukemia, in the assay with HOP-62 NSCLC, with MOLT-4 leukemia, in the assay with NCI-H23 lung and with NCI-H460 lung was > 100 µM in each case. In addition, the TGI in the assay on OVCAR-4 ovarian, in the assay with PC-3 prostate, in the assay on RXF 393 renal, in the assay on SK-MEL-28 melanoma, in the assay on SW-620 colon and in the assay on UACC-62 melanoma was > 100 µM throughout.
On to `CCOC(=O)/C=C(/C(=O)OCC)n1ccc(=O)n(/C(=C/C(=O)OCC)C(=O)OCC)c1=O`, for which the TGI worked out at 32.7 µM in the assay with A549 NSCLC; 2.91 µM with HL-60(TB) leukemia; 46.9 µM in the assay on HOP-62 NSCLC; 3.84 µM with MOLT-4 leukemia; 42.7 µM in the assay with NCI-H23 lung; 34.3 µM with NCI-H460 lung. Further, the TGI in the assay on OVCAR-4 ovarian stood at 30.6 µM; in the assay with PC-3 prostate, 29 µM; in the assay with RXF 393 renal, 9.62 µM; with SK-MEL-28 melanoma, 27.9 µM; in the assay with SW-620 colon it was 4.07 µM; in the assay with UACC-62 melanoma, 28.3 µM.
`C[C@]12[C@@H]3CC[C@H]1[C@@H](OC(=O)Nc1cc([N+](=O)[O-])cc([N+](=O)[O-])c1)C(=O)N2CC3`: the TGI in the assay on A549 NSCLC, in the assay with HL-60(TB) leukemia, in the assay with HOP-62 NSCLC, in the assay with MOLT-4 leukemia, with NCI-H23 lung and in the assay on NCI-H460 lung was > 100 µM throughout. In addition, the TGI in the assay with OVCAR-4 ovarian, with PC-3 prostate, with RXF 393 renal, in the assay with SK-MEL-28 melanoma, with SW-620 colon and with UACC-62 melanoma was > 100 µM in each case.
For the compound `O=C(O)c1ccccc1/C=N/NC1=NCCCCN1`, the TGI with A549 NSCLC, with HL-60(TB) leukemia, in the assay on HOP-62 NSCLC, in the assay with MOLT-4 leukemia, in the assay with NCI-H23 lung and in the assay on NCI-H460 lung was > 100 µM each time. Moreover, the TGI in the assay with OVCAR-4 ovarian, in the assay with PC-3 prostate, in the assay with RXF 393 renal, in the assay with SK-MEL-28 melanoma, in the assay with SW-620 colon and with UACC-62 melanoma was > 100 µM in each case.
Turning to `C=CC[C@@]1(C)CCCCCCCCC[C@@](C)(CC=C)C1=O`, the TGI is > 100 µM with A549 NSCLC; 46.1 µM in the assay with HL-60(TB) leukemia; > 100 µM in the assay with HOP-62 NSCLC; 43.2 µM with MOLT-4 leukemia; 63.9 µM in the assay on NCI-H23 lung; 59.1 µM in the assay on NCI-H460 lung. In addition, the TGI in the assay on OVCAR-4 ovarian is > 100 µM; with PC-3 prostate it was > 100 µM; in the assay on RXF 393 renal it was 32.6 µM; with SK-MEL-28 melanoma it was > 100 µM; in the assay on SW-620 colon it was 63.5 µM; in the assay on UACC-62 melanoma, 67.5 µM.
On to `O=C1/C(=C/c2ccc(Cl)cc2)N=C(c2ccccc2)N1c1ccc(S(=O)(=O)Nc2nccs2)cc1`, for which the TGI in the assay on A549 NSCLC was > 100 µM; in the assay on HL-60(TB) leukemia, 75.6 µM; with HOP-62 NSCLC, > 100 µM; in the assay with MOLT-4 leukemia, 83.2 µM; in the assay on NCI-H23 lung, > 100 µM; in the assay with NCI-H460 lung it was > 100 µM. The TGI with OVCAR-4 ovarian was > 100 µM; with PC-3 prostate it was > 100 µM; in the assay with RXF 393 renal, > 100 µM; in the assay with SK-MEL-28 melanoma it was > 100 µM; with SW-620 colon, > 100 µM; in the assay with UACC-62 melanoma, 53.1 µM.
`COc1ccc(C2SC(C)C(=O)N2c2nc(-c3nc(-c4ccc(Cl)cc4)cs3)cs2)cc1` (configuration not stated): the TGI in the assay on A549 NSCLC, in the assay on HL-60(TB) leukemia, in the assay on HOP-62 NSCLC, in the assay on MOLT-4 leukemia, with NCI-H23 lung and in the assay on NCI-H460 lung was > 100 µM each time. The TGI in the assay with OVCAR-4 ovarian, in the assay with PC-3 prostate, in the assay on RXF 393 renal, with SW-620 colon and in the assay on UACC-62 melanoma was > 100 µM each time.
`C=CCNC1=C2C[C@@H](C)C[C@@H](OC)[C@H](OC(=O)CN)[C@H](C)/C=C(\C)[C@@H](OC(N)=O)[C@H](OC)/C=C\C=C(/C)C(=O)NC(=CC1=O)C2=O`: the TGI in the assay on A549 NSCLC was 21 µM; in the assay on HL-60(TB) leukemia, 8.53 µM; with HOP-62 NSCLC it was 19.9 µM; in the assay on MOLT-4 leukemia, > 36.1 µM; in the assay on NCI-H23 lung, 21.3 µM; in the assay with NCI-H460 lung it was 18.3 µM. The TGI in the assay on OVCAR-4 ovarian is 29.2 µM; in the assay on PC-3 prostate it was 11.9 µM; in the assay with RXF 393 renal it was 17 µM; in the assay on SK-MEL-28 melanoma it was 29.7 µM; with SW-620 colon, > 100 µM; in the assay with UACC-62 melanoma, 12 µM.
Consider `CCCCC(=O)Oc1ccc2c(C)cc(=O)oc2c1`, for which the TGI in the assay on A549 NSCLC, in the assay with HL-60(TB) leukemia, in the assay on HOP-62 NSCLC, in the assay with MOLT-4 leukemia, in the assay with NCI-H23 lung and with NCI-H460 lung was > 100 µM throughout. Besides, the TGI in the assay on OVCAR-4 ovarian, in the assay with PC-3 prostate, with RXF 393 renal, in the assay on SK-MEL-28 melanoma, with SW-620 colon and in the assay with UACC-62 melanoma was > 100 µM each time.
Turning to `CC(=O)OC1CC[C@]2(C)C3CC[C@@]4(C)C(CCC4[C@H](C)CCCC(C)C)[C@@H]3CCC2(Br)C1` (some centres not stated), the TGI in the assay on A549 NSCLC was > 50 µM; in the assay with HL-60(TB) leukemia it was 28.3 µM; in the assay with HOP-62 NSCLC it was > 50 µM; in the assay on MOLT-4 leukemia it was 28 µM; in the assay on NCI-H23 lung, 36.5 µM; in the assay on NCI-H460 lung, > 50 µM. Besides, the TGI in the assay on OVCAR-4 ovarian was 24 µM; with PC-3 prostate it was 37.7 µM; in the assay with RXF 393 renal, 21.9 µM; with SK-MEL-28 melanoma, 16.2 µM; in the assay with SW-620 colon, 19.3 µM; in the assay with UACC-62 melanoma, > 50 µM.
Take `CC#CCCN(CC#N)Cc1ccccc1`: the TGI in the assay on A549 NSCLC, with HL-60(TB) leukemia, with HOP-62 NSCLC, with MOLT-4 leukemia, with NCI-H23 lung and in the assay on NCI-H460 lung was > 100 µM in each case. Also, the TGI is > 100 µM with OVCAR-4 ovarian; > 100 µM with PC-3 prostate; > 100 µM in the assay with RXF 393 renal; > 100 µM in the assay on SK-MEL-28 melanoma; 32.9 µM in the assay on UACC-62 melanoma.
In the case of `O=C(c1ccc(Br)cc1)n1c2ccc(Br)cc2c2nc3ccccc3nc21`, the TGI with HL-60(TB) leukemia, in the assay on HOP-62 NSCLC, in the assay on MOLT-4 leukemia, in the assay with NCI-H23 lung, in the assay with NCI-H460 lung and with OVCAR-4 ovarian was > 100 µM in each case. For the same compound, the TGI with PC-3 prostate, with RXF 393 renal, in the assay with SK-MEL-28 melanoma, in the assay with SW-620 colon and in the assay with UACC-62 melanoma was > 100 µM throughout.
On to `O=C=NCCCCCCN1C(=O)N2C(c3ccccc3)N(CCCCCCN=C=O)C(=O)N2C1c1ccccc1` (configuration not stated), for which the TGI in the assay with A549 NSCLC, in the assay with HL-60(TB) leukemia, in the assay on HOP-62 NSCLC, in the assay on MOLT-4 leukemia, in the assay with NCI-H23 lung and in the assay with NCI-H460 lung was > 100 µM throughout. The TGI in the assay with OVCAR-4 ovarian, with PC-3 prostate, in the assay with RXF 393 renal, in the assay with SK-MEL-28 melanoma and in the assay on SW-620 colon was > 100 µM throughout.
Take `CC(C)C1OC(/C=C/c2ccccc2)OCC1(C)C` (configuration not stated): the TGI is > 100 µM with A549 NSCLC; 38.3 µM with HL-60(TB) leukemia; > 100 µM in the assay on HOP-62 NSCLC; 98.9 µM with NCI-H23 lung; 39.9 µM with NCI-H460 lung; > 100 µM with OVCAR-4 ovarian. For the same compound, the TGI was > 100 µM in the assay with PC-3 prostate; 42.3 µM in the assay with RXF 393 renal; > 100 µM in the assay with SK-MEL-28 melanoma; > 100 µM in the assay with SW-620 colon; > 100 µM with UACC-62 melanoma.
